Assay results: patent EP4768484A1, “HETEROCYCLIC FUSED RING COMPOUND, AND COMPOSITION AND USE THEREOF” (Shenzhen TargetRx, Inc., priority 2023, dated 2025)

How the values were obtained:
Format in all cases: cell-based
[1] = molecular target: T1, Ba/F3 BCR-ABL1 E255V/T315I (Homo sapiens, UniProt P00519+P11274, E255V/T315I); test: Cell growth inhibitory activity assay (CellTiter-Glo), Ba/F3 BCR-ABL1 E255V/T315I cells; settings: 72 h, CTG cell viability
T1 construct: BCR (N-terminal fusion partner of the oncoprotein); expressed in transfected cells; host or cells: Ba/F3 (lentiviral transduction, monoclonal line)
Protocol: (§1) In this assay, the Celltiter-Glo (CTG) kit provided by Promega was used, and it is a homogeneous cell viability assay method. The cell viability of cultured cells was measured by quantifying ATP. K562 cells were purchased from Nanjing Kebai, product number CBP60529; Ba/F3 parental cells were purchased from RIKEN BRC, product number RCB0805; other cells containing BCR-ABL1 WT, BCR-ABL1 T315I, BCR-ABL1 T315M, BCR-ABL1 Y253H/E255K, BCR-ABL1 E255V/T3151, BCR-ABL1 A424T, BCR-ABL1 A337V, BCR-ABL1 P465S, BCR-ABL1 V468F, and BCR-ABL1 I502L were all monoclonal engineered cell lines obtained by transducting Ba/F3 parental cells with the lentivirus plasmids containing WT or corresponding mutated BCR-ABL1.
(§2) The steps of cell viability assay are as follows: • a) Cells in logarithmic growth phase were collected. Cell suspension was prepared and the cells were counted. Concentration of the cells was calculated. • b) The cell suspension was diluted to the required concentration and then added to the middle wells of a 96-well plate, and PBS was added to the edge wells. The wells with no cells and only culture medium were used as blank controls. • c) In addition to the cell plate used for compound analysis, another 96-well plate was prepared as a T0 plate, and 3-6 blank wells and 3-6 cell wells were added. The next day, CTG was used to test the cell viability as the T0 viability value of the cells. • d) The cell plate was incubated at 37 °C in a 5% CO2 incubator overnight. • e) The next day, each concentration of a compound subjected to a gradient dilution was added, and the cell plate was incubated at 37 °C in a 5% CO2 incubator for 72 h. The wells with no compound and only 0.5% DMSO were used as positive controls for cell growth. • f) CTG reagent (CellTiter-Glo kit) was added according to the manufacturer's instructions to test the cell viability value. • g) The plate was read using Biotek cytation3.0 microplate reader and the data were exported. • h) IC50 was calculated using GraphPad Prism 7.0 software.
(§3) The IC50 (half-maximal inhibitory concentration) of the compound was obtained using the following nonlinear fitting formula: Y = Bottom + (Top−Bottom)/(1+10^(∧)((LogIC50−X)*HillSlope)) [formula] • X: Log value of the compound concentration • Y: Inhibition rate (% inhibition) • Top: Maximum response • Bottom: Baseline response • HillSlope: Slope of the curve
(§4) The formula for calculating cell inhibition rate (inhibition rate %) was: [formula]

[2] = molecular target: T2, Ba/F3 BCR-ABL1 Y253H/E255K (Homo sapiens, UniProt P00519+P11274, E255K/Y253H); test: Cell growth inhibitory activity assay (CellTiter-Glo), Ba/F3 BCR-ABL1 Y253H/E255K cells; settings: 72 h, CTG cell viability
T2 construct: BCR (N-terminal fusion partner of the oncoprotein); expressed in transfected cells; host or cells: Ba/F3 (lentiviral transduction, monoclonal line)
Protocol: as §1, §2, §3, §4

Ba/F3 BCR-ABL1 T315I = molecular target: T3, Ba/F3 BCR-ABL1 T315I (Homo sapiens, UniProt P00519+P11274, T315I); test: Cell growth inhibitory activity assay (CellTiter-Glo), Ba/F3 BCR-ABL1 T315I cells; settings: 72 h, CTG cell viability
T3 construct: BCR (N-terminal fusion partner of the oncoprotein); expressed in transfected cells; host or cells: Ba/F3 (lentiviral transduction, monoclonal line)
Outline: (§5)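 Ba/F3 lines stably transduced by lentivirus with WT or mutant BCR-ABL1, alongside untransduced parental Ba/F3, were seeded and incubated overnight at 37 °C, 5% CO2, then exposed to serially diluted compound for 72 h. Viability was read as ATP by CellTiter-Glo luminescence against a day-of-dosing T0 plate; IC50 from four-parameter nonlinear fit.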

Ba/F3 BCR-ABL1 WT = molecular target: T4, Ba/F3 BCR-ABL1 WT (Homo sapiens, UniProt P00519+P11274); test: Cell growth inhibitory activity assay (CellTiter-Glo), Ba/F3 BCR-ABL1 WT cells; settings: 72 h, CTG cell viability
T4 construct: BCR (N-terminal fusion partner of the oncoprotein); expressed in transfected cells; host or cells: Ba/F3 (lentiviral transduction, monoclonal line)
Outline: as §5

K562 cells = test: Cell growth inhibitory activity assay (CellTiter-Glo), K562 cells; settings: Homo sapiens, 72 h, CTG cell viability
Outline: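 Growth inhibition of human K562 cells, sourced from Nanjing Kebai (CBP60529), was assessed with Promega's CellTiter-Glo kit, which measures viability through ATP quantification. Log-phase cells went into the inner wells of 96-well plates, with PBS in edge wells, incubated overnight at 37 °C and 5% CO2, then exposed to serially diluted compound for 72 h.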

Ba/F3 parental cells = test: Cell growth inhibitory activity assay (CellTiter-Glo), Ba/F3 parental cells; settings: Mus musculus, BaF3, 72 h, CTG cell viability, read-out: IC50 Ba/F3 BCR-ABL1 Parental
Outline: as §5

Ba/F3 BCR-ABL1 T315M = molecular target: T5, Ba/F3 BCR-ABL1 T315M (Homo sapiens, UniProt P00519+P11274, T315M); test: Cell growth inhibitory activity assay (CellTiter-Glo), Ba/F3 BCR-ABL1 T315M cells; settings: 72 h, CTG cell viability
T5 construct: BCR (N-terminal fusion partner of the oncoprotein); expressed in transfected cells; host or cells: Ba/F3 (lentiviral transduction, monoclonal line)
Protocol: as §1, §2, §3, §4

Ba/F3 BCR-ABL1 A424T = molecular target: T6, Ba/F3 BCR-ABL1 A424T (Homo sapiens, UniProt P00519+P11274, A424T); test: Cell growth inhibitory activity assay (CellTiter-Glo), Ba/F3 BCR-ABL1 A424T cells; settings: 72 h, CTG cell viability
T6 construct: BCR (N-terminal fusion partner of the oncoprotein); expressed in transfected cells; host or cells: Ba/F3 (lentiviral transduction, monoclonal line)
Protocol: as §1, §2, §3, §4

IC50 (K562 cells)	Compound	IC50 [1]	IC50 [2]	IC50 (Ba/F3 BCR-ABL1 T315I)	IC50 (Ba/F3 BCR-ABL1 WT)	IC50 (Ba/F3 parental cells)	IC50 (Ba/F3 BCR-ABL1 T315M)	IC50 (Ba/F3 BCR-ABL1 A424T)
≤ 5 nM	C[C@@H]1COCc2nc3cc(C(=O)Nc4ccc(OC(F)(F)Cl)cc4)cc(-c4cnc5c(c4)-c4nc(N)sc4C5)c3n21 [T-114, (R)-6-(2-amino-4H-thiazolo[4',5':3,4]cyclopenta[1,2-b]pyridin-7-yl)-N-(4-(chlorodifluoromethoxy)phenyl)-4-methyl-3,4-dihydro-1H-benzo[4,5]imidazo[2,1-c][1,4]oxazine-8-carboxamide]	50 to 1000 nM	5 to 50 nM	5 to 50 nM	≤ 5 nM	> 1000 nM	> 1000 nM	–
≤ 5 nM	C[C@@H]1COCc2nc3cc(C(=O)Nc4ccc(OC(F)(F)Cl)cc4)cc(-c4cnc5c(c4)-c4nn(-c6ncc(C#N)cn6)cc4C5)c3n21 [T-78, (R)-N-(4-(chlorodifluoromethoxy)phenyl)-6-(2-(5-cyanopyrimidin-2-yl)-2,4-dihydropyrazolo[3',4':3,4]cyclopenta[1,2-b]pyridin-7-yl)-4-methyl-3,4-dihydro-1H-benzo[4,5]imidazo[2,1-c][1,4]oxazine-8-carboxamide]	≤ 5 nM	≤ 5 nM	≤ 5 nM	≤ 5 nM	> 1000 nM	–	–
≤ 5 nM	C[C@@H]1CCOCc2nc3cc(C(=O)Nc4ccc(OC(F)(F)Cl)cc4)cc(-c4cnc5c(c4)C(=O)N(C)C5)c3n21 [T-39, (R)-N-(4-(chlorodifluoromethoxy)phenyl)-5-methyl-7-(6-methyl-5-oxo-6,7-dihydro-5H-pyrrolo[3,4-b]pyridin-3-yl)-4,5-dihydro-1H,3H-benzo[4,5]imidazo[2,1-c][1,4]oxazepine-9-carboxamide]	–	–	50 to 1000 nM	≤ 5 nM	> 1000 nM	> 1000 nM	–
≤ 5 nM	CC(=O)n1cc2c(n1)-c1cc(-c3cc(C(=O)Nc4ccc(OC(F)(F)Cl)cc4)cc4nc5n(c34)[C@H](C)COC5)cnc1C2 [T-43, (R)-6-(2-acetyl-2,4-dihydropyrazolo[3',4':3,4]cyclopenta[1,2-b]pyridin-7-yl)-N-(4-(chlorodifluoromethoxy)phenyl)-4-methyl-3,4-dihydro-1H-benzo[4,5]imidazo[2,1-c][1,4]oxazine-8-carboxamide]	–	–	≤ 5 nM	≤ 5 nM	> 1000 nM	50 to 1000 nM	–
≤ 5 nM	C[C@@H]1COCc2nc3cc(C(=O)Nc4ccc(OC(F)(F)Cl)cc4)cc(-c4cnc5c(c4)C(=O)NC5)c3n21 [T-30, (R)-N-(4-(chlorodifluoromethoxy)phenyl)-4-methyl-6-(5-oxo-6,7-dihydro-5H-pyrrolo[3,4-b]pyridin-3-yl)-3,4-dihydro-1H-benzo[4,5]imidazo[2,1-c][1,4]oxazine-8-carboxamide]	–	–	50 to 1000 nM	≤ 5 nM	> 1000 nM	5 to 50 nM	–
≤ 5 nM	C[C@@H]1COCc2nc3cc(C(=O)Nc4ccc(OC(F)(F)Cl)cc4)cc(-c4cnc5c(c4)-c4nn(-c6ccncn6)cc4C5)c3n21 [T-67, (R)-N-(4-(chlorodifluoromethoxy)phenyl)-4-methyl-6-(2-(pyrimidin-4-yl)-2,4-dihydropyrazolo[3',4':3,4]cyclopenta[1,2-b]pyridin-7-yl)-3,4-dihydro-1H-benzo[4,5]imidazo[2,1-c][1,4]oxazine-8-carboxamide]	–	≤ 5 nM	≤ 5 nM	≤ 5 nM	> 1000 nM	–	–
≤ 5 nM	C[C@@H]1CCC(F)c2nc3cc(C(=O)Nc4ccc(OC(F)(F)Cl)cc4)cc(-c4cnc5c(c4)C(=O)N(C4CC4)C5)c3n21 (some centres unmarked) [T-35]	–	–	5 to 50 nM	≤ 5 nM	> 1000 nM	5 to 50 nM	–

More lines, now with the values behind:

Compound	IC50 (K562 cells)	IC50 [1]	IC50 [2]	IC50 (Ba/F3 BCR-ABL1 T315I)	IC50 (Ba/F3 BCR-ABL1 WT)	IC50 (Ba/F3 parental cells)	IC50 (Ba/F3 BCR-ABL1 T315M)	IC50 (Ba/F3 BCR-ABL1 A424T)
C[C@@H]1CCC(O)c2nc3cc(C(=O)Nc4ccc(OC(F)(F)Cl)cc4)cc(-c4cnc5c(c4)C(=O)NC5)c3n21 (stereo partly drawn) [T-33, (1R)-N-(4-(chlorodifluoromethoxy)phenyl)-4-hydroxy-1-methyl-9-(5-oxo-6,7-dihydro-5H-pyrrolo[3,4-b]pyridin-3-yl)-1,2,3,4-tetrahydrobenzo[4,5]imidazo[1,2-a]pyridine-7-carboxamide]	≤ 5 nM	–	–	50 to 1000 nM	5 to 50 nM	> 1000 nM	50 to 1000 nM	–
C[C@@H]1COCc2nc3cc(C(=O)Nc4ccc(OC(F)(F)Cl)cc4)cc(-c4cnc5c(c4)C(=O)N(C4CC4)C5)c3n21 [T-25, (R)-N-(4-(chlorodifluoromethoxy)phenyl)-6-(6-cyclopropyl-5-oxo-6,7-dihydro-5H-pyrrolo[3,4-b]pyridin-3-yl)-4-methyl-3,4-dihydro-1H-benzo[4,5]imidazo[2,1-c][1,4]oxazine-8-carboxamide]	≤ 5 nM	5 to 50 nM	5 to 50 nM	5 to 50 nM	≤ 5 nM	> 1000 nM	> 1000 nM	5 to 50 nM
C[C@@H]1CC[S+]([O-])c2nc3cc(C(=O)Nc4ccc(OC(F)(F)Cl)cc4)cc(-c4cnccn4)c3n21 (stereo partly drawn) [T-117, (4R)-N-(4-(chlorodifluoromethoxy)phenyl)-4-methyl-6-(pyrazin-2-yl)-3,4-dihydro-2H-benzo[4,5]imidazo[2,1-b][1,3]thiazine-8-carboxamide 1-oxide]	≤ 5 nM	–	–	5 to 50 nM	≤ 5 nM	> 1000 nM	> 1000 nM	–
CC(=O)N[C@H]1CCC2c3cc(C(=O)Nc4ccc(OC(F)(F)Cl)cc4)cc(-c4cnccn4)c3N(C(C)C)C21 (stereo partly drawn) [T-12-A, (3S)-3-acetamido-N-(4-(chlorodifluoromethoxy)phenyl)-4-isopropyl-5-(pyrazin-2-yl)-1,2,3,3a,4,8b-hexahydrocyclopenta[b]indole-7-carboxamide]	50 to 1000 nM	–	–	> 1000 nM	50 to 1000 nM	> 1000 nM	> 1000 nM	–
CC(=O)N[C@@H]1CCC2c3cc(C(=O)Nc4ccc(OC(F)(F)Cl)cc4)cc(-c4cnc5c(c4)C(=O)N(C)C5)c3N(C(C)C)C21 (stereo partly drawn) [T-11-B, (3R)-3-acetamido-N-(4-(chlorodifluoromethoxy)phenyl)-4-isopropyl-5-(6-methyl-5-oxo-6,7-dihydro-5H-pyrrolo[3,4-b]pyridin-3-yl)-1,2,3,3a,4,8b-hexahydrocyclopenta[b]indole-7-carboxamide]	≤ 5 nM	–	–	5 to 50 nM	≤ 5 nM	> 1000 nM	50 to 1000 nM	–
CC(=O)N[C@H]1CCC2c3cc(C(=O)Nc4ccc(OC(F)(F)Cl)cc4)cc(-c4cnc5c(c4)C(=O)N(C)C5)c3N(C(C)C)C21 (stereo partly drawn) [T-11-A, (3S)-3-acetamido-N-(4-(chlorodifluoromethoxy)phenyl)-4-isopropyl-5-(6-methyl-5-oxo-6,7-dihydro-5H-pyrrolo[3,4-b]pyridin-3-yl)-1,2,3,3a,4,8b-hexahydrocyclopenta[b]indole-7-carboxamide]	50 to 1000 nM	–	–	> 1000 nM	50 to 1000 nM	> 1000 nM	> 1000 nM	–
